How the values were obtained:
Experiment in all cases: relative viability (nuclei count vs DMSO), 5 days (fraction); higher = more cells survive
[1] = compound: CC(C)N(CCCNC(=O)Nc1ccc(C(C)(C)C)cc1)C[C@H]1O[C@@H](n2ccc3c(N)ncnc32)[C@H](O)[C@@H]1O + Cc1cc(Nc2cc(N3CCN(C)CC3)nc(Sc3ccc(NC(=O)C4CC4)cc3)n2)n[nH]1 [Tozasertib] (partner 0.1 µM)
Summary of the method: (§1)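 Lung cancer cell lines in 1536-well plates were dosed by pin tool the day after seeding, either with one drug alone or with a fixed anchor-drug dose plus five library-drug doses (not always all listed) in √10 steps. After 5 days, cells were fixed and their nuclei stained in one step (final 0.05% Triton X-100, 1% formaldehyde, 1 ug/ml Hoechst), then counted on 4× images. Relative viability is the nuclei count in treated wells divided by that in vehicle wells. Values are medians of duplicate plates.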

[2] = compound: CC(C)N(CCCNC(=O)Nc1ccc(C(C)(C)C)cc1)C[C@H]1O[C@@H](n2ccc3c(N)ncnc32)[C@H](O)[C@@H]1O + CC(=O)c1c(C)c2cnc(Nc3ccc(N4CCNCC4)cn3)nc2n(C2CCCC2)c1=O [Palbociclib] (partner 0.5 µM)
Summary of the method: as §1

[3] = compound: CC(C)N(CCCNC(=O)Nc1ccc(C(C)(C)C)cc1)C[C@H]1O[C@@H](n2ccc3c(N)ncnc32)[C@H](O)[C@@H]1O + Cc1nc(NC(=O)N2CCC[C@H]2C(N)=O)sc1-c1ccnc(C(C)(C)C(F)(F)F)c1 [Alpelisib] (partner 2 µM)
Summary of the method: as §1

[4] = compound: CC(C)N(CCCNC(=O)Nc1ccc(C(C)(C)C)cc1)C[C@H]1O[C@@H](n2ccc3c(N)ncnc32)[C@H](O)[C@@H]1O + N=C(N)NC(=N)NCCc1ccccc1 [Phenformin] (partner 250 µM)
Summary of the method: as §1

Cell Line	relative viability ([1]; first compound 0.08 µM)	relative viability ([1]; first compound 0.253 µM)	relative viability ([1]; first compound 0.8 µM)	relative viability ([1]; first compound 2.53 µM)	relative viability ([1]; first compound 8 µM)	relative viability ([2]; first compound 0.08 µM)	relative viability ([2]; first compound 0.253 µM)	relative viability ([2]; first compound 0.8 µM)	relative viability ([2]; first compound 2.53 µM)	relative viability ([2]; first compound 8 µM)	relative viability ([3]; first compound 0.08 µM)	relative viability ([3]; first compound 0.253 µM)	relative viability ([3]; first compound 0.8 µM)	relative viability ([3]; first compound 2.53 µM)	relative viability ([3]; first compound 8 µM)	relative viability ([4]; first compound 0.08 µM)	relative viability ([4]; first compound 0.253 µM)	relative viability ([4]; first compound 0.8 µM)	relative viability ([4]; first compound 2.53 µM)	relative viability ([4]; first compound 8 µM)
NCI-H727	0.667	0.656	0.697	0.621	0.642	0.694	0.578	0.769	0.82	0.62	0.448	0.511	0.612	0.547	0.673	0.554	0.461	0.46	0.639	0.412
NCI-H838	0.258	0.264	0.341	0.275	0.233	0.217	0.178	0.182	0.247	0.251	0.983	0.804	1.04	1.03	0.99	0.487	0.394	0.551	0.551	0.51
NCI-H1355	0.581	0.536	0.574	0.501	0.55	0.379	0.427	0.363	0.386	0.392	0.768	0.809	–	0.772	0.804	0.441	0.444	0.387	0.48	0.432
NCI-H1395	0.727	0.731	0.63	0.774	0.741	0.587	0.59	0.651	0.626	0.625	1.11	0.996	–	1.21	1.05	0.433	0.436	0.43	0.438	0.424
NCI-H1437	0.405	0.38	0.409	0.372	0.389	0.299	0.289	0.288	0.275	0.307	0.9	1.01	1.1	0.903	0.945	0.278	0.344	0.276	0.294	0.309
NCI-H1651	0.624	0.752	0.628	0.725	0.579	0.497	0.485	0.49	0.515	0.518	0.882	0.98	0.92	0.935	1.04	0.34	0.302	0.295	0.288	0.35
NCI-H1666	0.512	0.563	0.632	0.563	0.695	0.64	0.634	0.659	0.65	0.656	0.888	0.825	0.895	0.943	1.02	0.546	0.594	0.543	0.586	0.542
NCI-H1734	0.265	0.249	0.277	0.246	0.258	0.328	0.385	0.353	0.192	0.365	0.665	0.665	0.636	0.723	0.713	0.38	0.331	0.398	0.4	0.397
NCI-H1755	0.637	0.564	0.464	0.573	0.54	0.437	0.435	0.45	0.484	0.498	0.891	0.929	0.905	0.882	0.84	0.62	0.609	0.614	0.632	0.554
NCI-H1793	0.345	–	0.356	0.33	0.386	0.295	–	0.292	0.38	0.303	0.554	–	0.715	0.527	0.669	0.396	–	0.336	0.371	0.316
NCI-H1915	0.443	0.401	0.434	0.388	0.426	0.517	0.543	0.517	0.533	0.525	1.07	1.05	0.974	1.05	0.968	0.362	0.388	0.378	0.388	0.353
NCI-H1944	0.253	0.261	0.251	0.239	0.246	0.322	0.302	0.348	0.329	0.353	0.769	0.806	0.774	0.852	0.82	0.223	0.195	0.199	0.188	0.198
NCI-H1975	0.696	0.765	0.741	0.597	0.569	0.557	0.486	0.205	0.499	0.497	0.555	0.529	0.586	0.611	0.567	0.393	0.387	0.202	0.393	0.338
NCI-H1993	0.564	–	–	0.624	0.591	0.616	–	0.57	0.609	0.65	0.696	0.786	0.619	0.675	0.751	0.464	–	–	0.539	0.498
NCI-H2009	0.765	0.727	0.798	0.695	0.713	0.148	0.198	0.184	0.174	0.255	1.19	1.15	1.22	1.22	1.18	0.489	0.496	0.475	0.474	0.426
NCI-H2023	0.437	0.38	0.345	0.375	0.338	0.458	0.312	0.634	0.338	0.329	0.532	0.619	0.619	0.68	0.622	0.41	0.427	0.445	0.405	0.353

Cell Line	relative viability ([1]; first compound 0.08 µM)	relative viability ([1]; first compound 0.253 µM)	relative viability ([1]; first compound 0.8 µM)	relative viability ([1]; first compound 2.53 µM)	relative viability ([1]; first compound 8 µM)	relative viability ([2]; first compound 0.08 µM)	relative viability ([2]; first compound 0.253 µM)	relative viability ([2]; first compound 0.8 µM)	relative viability ([2]; first compound 2.53 µM)	relative viability ([2]; first compound 8 µM)	relative viability ([3]; first compound 0.08 µM)	relative viability ([3]; first compound 0.253 µM)	relative viability ([3]; first compound 0.8 µM)	relative viability ([3]; first compound 2.53 µM)	relative viability ([3]; first compound 8 µM)	relative viability ([4]; first compound 0.08 µM)	relative viability ([4]; first compound 0.253 µM)	relative viability ([4]; first compound 0.8 µM)	relative viability ([4]; first compound 2.53 µM)	relative viability ([4]; first compound 8 µM)
NCI-H2085	0.746	0.78	0.797	0.854	0.716	0.47	0.48	0.524	0.547	0.481	0.969	0.978	1.05	0.972	0.913	0.693	0.592	0.816	0.789	0.631
NCI-H2087	0.243	0.252	0.243	0.259	0.207	0.29	0.235	0.276	0.203	0.269	1.04	1.21	1.14	1.24	1.11	0.38	0.519	0.445	0.55	0.351
NCI-H2126	0.844	0.834	0.812	0.843	0.786	0.358	0.366	0.355	0.378	0.371	0.734	0.712	0.78	0.783	0.722	0.523	0.529	0.52	0.534	0.496
NCI-H2170	0.723	0.72	0.645	0.709	0.74	0.407	0.399	0.372	0.381	0.351	0.736	0.762	0.82	0.815	0.908	0.445	0.441	0.416	0.445	0.396
NCI-H2228	0.261	0.314	0.264	0.277	0.23	0.789	0.56	0.643	0.77	0.701	0.782	–	0.796	0.76	0.745	0.403	0.297	0.298	0.274	0.231
NCI-H2347	0.51	0.492	0.48	0.539	0.654	0.423	0.44	0.407	0.553	0.404	0.882	0.904	0.935	1.1	1	0.536	0.404	0.369	0.488	0.254
NCI-H2405	0.706	0.82	0.783	0.822	0.703	0.515	0.539	0.532	0.546	0.507	0.858	–	0.789	0.89	0.795	0.393	0.324	0.419	0.409	0.345
NCI-H3122	0.477	0.489	0.382	0.383	0.353	0.204	0.162	0.161	0.198	0.197	0.808	0.846	0.797	0.858	0.701	0.39	0.384	0.367	0.366	0.358
PC-3 [JPC-3]	0.856	0.976	0.831	0.851	0.763	0.54	0.53	–	0.507	0.487	1.04	1	0.896	1	1.01	0.478	0.491	0.495	0.451	0.488
PC-14	0.529	0.598	0.598	0.6	0.551	0.467	0.439	0.586	0.444	0.496	0.883	0.818	0.988	0.964	0.794	0.637	0.544	0.556	0.454	0.532
RERF-LC-KJ	0.505	0.495	0.546	0.509	0.474	1.01	1.07	1.18	1.17	1.07	0.826	0.757	0.868	0.838	0.815	0.384	0.378	0.422	0.386	0.395
SK-LU-1	0.35	0.41	0.352	0.49	0.346	0.431	0.42	0.332	0.389	0.36	1.22	1.15	1.28	1.16	1.01	0.569	0.493	0.519	0.56	0.45
SK-MES-1	0.855	0.959	0.962	0.92	0.872	0.317	0.357	0.309	0.375	0.325	0.992	0.897	0.754	0.945	0.838	0.663	0.669	0.692	0.69	0.617
SW 1573	0.201	0.151	0.201	0.193	0.163	0.377	0.431	0.419	0.401	0.336	0.771	0.708	0.734	0.949	0.667	0.262	0.403	0.435	0.391	0.378
UMC-11	0.185	0.193	0.231	0.218	0.175	0.294	0.316	0.304	0.323	0.28	0.957	0.891	1.09	0.958	0.964	0.321	0.302	0.296	0.349	0.322

Reference: the supplement of paper PMC10307832
